This note sets out measurements from PubChem BioAssay (NCI).

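Values below derive from 48-hour exposures of cells grown in 96-well plates, with endpoints linearly interpolated between the two concentrations bracketing the appropriate inhibition level. At the GI50, growth is halved. TGI denotes the concentration required for complete inhibition of growth.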 Where a SMILES comes first, the peptide text is derived from it. The star is where a group is joined. Palmitoyl = CCCCCCCCCCCCCCCC(=O)*

Test in all cases: NCI-60 cell line screen, 48 h
The test system of assay [1] is MOLT-4 leukemia.
Assay [2] concerns HT29 colon.
In assay [3] the test system is SN12C renal.
Assay [4] relates to KM12 colon.
The test system of assay [5] is OVCAR-3 ovarian.
Assay [6] relates to HL-60(TB) leukemia.
Assay [7] concerns SNB-19 CNS.
Assay [8] relates to SK-OV-3 ovarian.
For assay [9], the system named is NCI-H460 lung.
Assay [10] deals with SF-295 CNS.

For `O=c1c2cc(S(=O)(=O)O)ccc2nc(COc2ccc(Oc3ccc(Cl)cc3Cl)cc2)n1-c1ccc(Oc2ccc(Cl)cc2)cc1Cl`, the TGI was 94.9 µM in [1]; 36 µM in [2]; 32.9 µM in assay [3]; more than 100 µM in assay [4]; 36.9 µM in assay [5]; 76 µM in [6]. In addition, the TGI was 67.7 µM in assay [7], 49.2 µM in [8], 32.8 µM in [9] and 35.5 µM in assay [10].

Consider `COC(=O)C1=C(OC(=O)/C(=C/c2ccc(Cl)cc2)c2ccc(Cl)cc2)C(C(=O)OC)[C@]2(O)[C@@H](C(=O)OC)[C@H]1C[C@@H](c1ccccc1)[C@@H]2C(=O)OC` (stereo not given in full), for which the TGI in assay [1], in assay [2], in [3], in assay [4], in assay [5] and in assay [6] was more than 100 µM throughout. Besides, the TGI in assay [7], in [8], in assay [9] and in assay [10] was more than 100 µM throughout.

Consider `Cc1c(-c2ccccc2)[nH]c2cc(Cl)ccc2c1=O`, for which the TGI in [1] was more than 100 µM; in assay [2] it was more than 100 µM; in [3], more than 100 µM; in assay [4] it was 18.7 µM; in assay [5], more than 100 µM; in [6], more than 100 µM. Also, the TGI in assay [7], in [8] and in [9] was more than 100 µM in each case.

For the compound `C=C(C)C1Cc2c(c3ccccc3n(C)c2=O)O1` (stereo not given), the TGI in assay [1], in assay [2], in [3], in [5], in assay [6] and in assay [7] was more than 100 µM in each case. The TGI in assay [8], in assay [9] and in [10] was more than 100 µM throughout.

In the case of `CCOC(=O)c1c(C)n(-c2ccc(Cl)cc2)c2c1cc(O)c1[nH]c3c(c12)CCCC3`, the TGI in assay [1], in assay [2], in assay [3], in assay [4], in assay [5] and in assay [6] was more than 100 µM throughout. For the same compound, the TGI in assay [7], in assay [8], in assay [9] and in [10] was more than 100 µM each time.

For the compound `CC1=C(O)C2=C(C(=O)C1=O)[C@@H](C)CC[C@@H]2[C@@H](C)C/C=C/C(C)(C)O`, the TGI in [1] is 93.2 µM; in assay [2], more than 100 µM; in assay [3], more than 100 µM; in [4] it was more than 100 µM; in [5] it was 79.2 µM; in assay [6], 71.3 µM. Further, the TGI in assay [7], in [8], in assay [9] and in assay [10] was more than 100 µM each time.

Regarding `COC(=O)c1c(C)n([O-])c2cc(Cl)c(Cl)cc2[n+]1=O`, the TGI in assay [1] came out at 84.5 µM; in assay [2], 51.6 µM; in assay [3], 84 µM; in assay [4], 33.1 µM; in assay [5] it was 52.4 µM; in assay [6], 50.2 µM. Besides, the TGI in [7] was more than 100 µM; in [8], 40 µM; in assay [9] it was 29.2 µM; in assay [10], more than 100 µM.

For the compound `c1ccc(-c2nc(N3CCNCC3)c3oc(-c4ccccc4)nc3n2)cc1`, the GI50 was 1.61 µM in [3]; 1.8 µM in [4]; 1.74 µM in assay [5]; 2.03 µM in assay [6]; 1.72 µM in assay [7]; 1.88 µM in assay [8]. Further, the GI50 in [9] and in assay [10] was 1.75 µM in each case. In addition, the TGI in assay [3] is 2.98 µM; in [4], 3.35 µM; in [5], 3.21 µM; in [6] it was 4.26 µM; in assay [7], 3.15 µM; in assay [8] it was 3.8 µM. Besides, the results for the TGI in assay [9] and in [10] were 3.38 µM and 3.22 µM, respectively.

With `Nc1[nH]c(=O)nc2c1cnn2C1CCCCO1` (stereo not given), the TGI in [1], in assay [2], in assay [3], in assay [4], in assay [6] and in assay [7] was more than 100 µM each time. For the same compound, the TGI in assay [9] and in assay [10] was more than 100 µM throughout.

As to `CC(C)C(C(=O)O)N1C(=O)c2ccccc2C1=O` (stereo not given), the TGI in assay [1], in assay [2], in assay [3], in [4], in assay [5] and in assay [6] was more than 100 µM throughout. Moreover, the TGI in [7], in [8], in [9] and in assay [10] was more than 100 µM each time.

Turning to `Cc1cc(C)nc(NS(=O)(=O)c2ccc(NC(=O)c3cccc4c(Nc5ccc(S(=O)(=O)Nc6cc(C)on6)cc5)c5ccccc5nc34)cc2)n1`, the TGI in [1] was determined as 86.4 µM; in assay [2], 46.7 µM; in [3], 61.8 µM; in assay [4], 30.4 µM; in assay [5] it was 38.9 µM; in [6], 68.4 µM. In addition, the TGI in assay [7] was 46.7 µM; in assay [8] it was 75.2 µM; in [9], 59.9 µM.

Turning to `CCCC1CCC(=C2C(=O)CCC2=O)O1` (stereo not given), the TGI in [1], in [2], in [3], in assay [4], in assay [5] and in assay [6] was more than 100 µM throughout. Also, the TGI in [7], in assay [8], in assay [9] and in [10] was more than 100 µM throughout.

Take `COc1cc(C(C)O)c[n+](Cc2ccccc2)c1` (stereo not given): the TGI in [1], in [2], in assay [3], in [4], in [5] and in assay [6] was more than 100 µM in each case. For the same compound, the TGI in assay [7], in [8], in assay [9] and in [10] was more than 100 µM each time.

With `CC12C=CC(=O)C=C1CCC1C3CCC(O)(C(=O)CO)C3(C)CC(O)C12F` (stereo not given), the TGI in assay [1], in [2], in [3], in assay [4], in [5] and in assay [6] was more than 100 µM each time. For the same compound, the TGI in [7], in assay [8], in assay [9] and in assay [10] was more than 100 µM each time.

As to `CC(N)Cc1ccc(Cl)c(Cl)c1` (stereo not given), the TGI in assay [1] was 71.2 µM; in assay [2] it was 56.5 µM; in [3], more than 74 µM; in assay [4], more than 100 µM; in [5], more than 100 µM; in assay [6], 42.4 µM. Further, the TGI is more than 100 µM in [7], more than 100 µM in assay [8], 97.1 µM in [9] and more than 80.1 µM in [10].

With `O=C(/C=C/c1ccc(Oc2cc(C(=O)/C=C/c3ccc(O)cc3)c(O)cc2O)cc1)c1ccc(O)cc1O`, the TGI in [1] is more than 100 µM; in assay [2], 3.57 µM; in [3], 17 µM; in [4] it was 6.64 µM; in assay [5], 11.9 µM; in assay [6], more than 100 µM. The TGI in assay [7] amounted to 30.9 µM; in [8] it was 8.88 µM; in [9] it was 29.8 µM; in assay [10], 18.5 µM.

Turning to `CON(C)c1nc(N(C)OC)nc(N(C)OC)n1`, the TGI in assay [1], in assay [2], in assay [3], in assay [4], in [5] and in assay [6] was more than 10 µM throughout. Moreover, the TGI in [7], in assay [8], in assay [9] and in assay [10] was more than 10 µM in each case.

For `Cc1ccc(-c2nc(N/N=C/C=C/c3ccccc3)c3ccccc3n2)cc1`, the TGI in assay [1] is more than 100 µM; in assay [2] it was more than 100 µM; in assay [3], 99 µM; in assay [4] it was more than 100 µM; in assay [5], more than 100 µM; in [6], more than 100 µM. Also, the TGI in [7], in [8], in assay [9] and in assay [10] was more than 100 µM throughout.

As for `C[N+](C)(C)c1ncnc2c1ncn2C1CC(O)C(CO)O1` (stereo not given), the TGI in [1], in [2], in [3], in assay [4], in assay [5] and in assay [6] was more than 100 µM throughout. Besides, the TGI in assay [7], in [8], in [9] and in assay [10] was more than 100 µM throughout.

For the compound `Cn1c(-c2ccccc2)cc(-c2cccs2)c1-c1cccs1`, the TGI in [1] is more than 100 µM; in assay [2] it was more than 100 µM; in [3], more than 100 µM; in assay [4] it was more than 44.9 µM; in [5], more than 100 µM; in assay [6], more than 100 µM. For the same compound, the TGI in assay [7], in [8], in [9] and in assay [10] was more than 100 µM in each case.

On to `OCCN(CCO)c1ncnc2nc[nH]c12`, for which the TGI in assay [1], in assay [2], in assay [3], in [4], in assay [5] and in assay [7] was more than 100 µM in each case. The TGI in assay [8], in assay [9] and in assay [10] was more than 100 µM in each case.

Turning to `COC(=O)/C=C(\CC(=O)OC)n1nnnc1[C@@H]1C[C@H](COC(c2ccccc2)(c2ccccc2)c2ccccc2)[C@H]2OC(C)(C)O[C@H]21`, the TGI in assay [1], in assay [2], in assay [3], in [4], in [5] and in assay [6] was more than 100 µM each time. The TGI in assay [7], in assay [8] and in assay [10] was more than 100 µM throughout.

For the compound `CN1C(c2ccccc2)CC(=O)C(N)C1c1ccccc1` (stereo not given), the TGI is more than 58.8 µM in [1]; 55.8 µM in [2]; 97.6 µM in [3]; 57.5 µM in assay [4]; more than 86.3 µM in assay [5]; 56.7 µM in assay [6]. Further, the TGI in assay [7] is more than 100 µM; in assay [8], more than 100 µM; in assay [9], 55.6 µM; in assay [10], more than 100 µM.

Turning to `C/C(=N/N=C(\[O-])c1ccncc1)C(F)(F)F.C/C(=N\N=C(/[O-])c1ccncc1)C(F)(F)F.[Ni+2]`, the GI50 in assay [1] is more than 1 µM; in assay [2], more than 1 µM; in [4], more than 1 µM; in assay [7], more than 1 µM; in assay [8], 0.00156 µM; in [10], more than 1 µM. Besides, the TGI in assay [1] was more than 1 µM; in [2], more than 1 µM; in assay [4], more than 1 µM; in [6], more than 1 µM; in assay [7], more than 1 µM; in assay [8], 0.005 µM. Also, in [10], the TGI is more than 1 µM.

Turning to `CCCCCCCCCCCCCCCC(=O)N1CCCC1C(=O)NCC(=O)NC(Cc1ccccc1)C(=O)NC(C)C(=O)NC(CO)C(=O)NC(Cc1ccc(O)cc1)C(=O)NC(CCCCN)C(=O)NC(CC(C)C)C(=O)NC(CCCN=C(N)N)C(=O)N1CCCC1C(=O)NCC(N)=O` (stereo not given) (Palmitoyl-PGFASYKLRPG-NH2; configuration not given here), the GI50 in assay [1] was 17.6 µM; in assay [2], 16.8 µM; in assay [4] it was 21.9 µM; in assay [5] it was 24.2 µM; in assay [6] it was 17.2 µM; in [7], 18.4 µM. In addition, the figures for the GI50 in assay [8], in assay [9] and in assay [10] were 12.8 µM, 23.5 µM and 27.3 µM, respectively. The TGI came out at 31.4 µM in assay [1]; 30.5 µM in assay [2]; 51.4 µM in assay [4]; 56.6 µM in [5]; 31 µM in [6]; 39.7 µM in assay [7]. Also, the results for the TGI in [8], in [9] and in assay [10] were 28.7 µM, 61.4 µM and 67.1 µM, respectively.
